Reference: PubChem BioAssay (NCI)
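Following 48 hours of exposure in 96-well plates, responses at five concentrations were used to interpolate endpoints linearly. Here, GI50 denotes the concentration required for 50% inhibition of growth. TGI is the concentration that stops growth completely.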

Columns and labels:
Assay in all cases: growth of human tumour cells (NCI), 48 h
HOP-92 NSCLC = tested on: HOP-92 NSCLC
NCI-H460 lung = tested on: NCI-H460 lung
HT29 colon = tested on: HT29 colon
EKVX NSCLC = tested on: EKVX NSCLC
OVCAR-4 ovarian = tested on: OVCAR-4 ovarian
MCF7 breast = tested on: MCF7 breast
HOP-62 NSCLC = tested on: HOP-62 NSCLC
HL-60(TB) leukemia = tested on: HL-60(TB) leukemia
HS 578T breast = tested on: HS 578T breast
A549 NSCLC = tested on: A549 NSCLC
PC-3 prostate = tested on: PC-3 prostate
CAKI-1 renal = tested on: CAKI-1 renal
IGROV1 ovarian = tested on: IGROV1 ovarian
TK-10 renal = tested on: TK-10 renal
MOLT-4 leukemia = tested on: MOLT-4 leukemia
DU-145 prostate = tested on: DU-145 prostate
SF-539 CNS = tested on: SF-539 CNS
SN12C renal = tested on: SN12C renal
MDA-MB-468 breast = tested on: MDA-MB-468 breast
MALME-3M melanoma = tested on: MALME-3M melanoma
NCI-H23 lung = tested on: NCI-H23 lung
UACC-62 melanoma = tested on: UACC-62 melanoma
HCC-2998 colon = tested on: HCC-2998 colon
SW-620 colon = tested on: SW-620 colon
COLO 205 colon = tested on: COLO 205 colon
M14 melanoma = tested on: M14 melanoma
SK-OV-3 ovarian = tested on: SK-OV-3 ovarian
K-562 leukemia = tested on: K-562 leukemia
MDA-MB-231 breast = tested on: MDA-MB-231 breast
OVCAR-3 ovarian = tested on: OVCAR-3 ovarian
HCT-116 colon = tested on: HCT-116 colon
ACHN renal = tested on: ACHN renal
SK-MEL-28 melanoma = tested on: SK-MEL-28 melanoma
SK-MEL-5 melanoma = tested on: SK-MEL-5 melanoma
HCT-15 colon = tested on: HCT-15 colon
RPMI-8226 leukemia = tested on: RPMI-8226 leukemia
T-47D breast = tested on: T-47D breast
MDA-MB-435 = tested on: MDA-MB-435
SNB-75 CNS = tested on: SNB-75 CNS
OVCAR-5 ovarian = tested on: OVCAR-5 ovarian
NCI/ADR-RES ovarian = tested on: NCI/ADR-RES ovarian
U251 CNS = tested on: U251 CNS
A498 renal = tested on: A498 renal
LOX IMVI melanoma = tested on: LOX IMVI melanoma
UO-31 renal = tested on: UO-31 renal
OVCAR-8 ovarian = tested on: OVCAR-8 ovarian
SK-MEL-2 melanoma = tested on: SK-MEL-2 melanoma
CCRF-CEM leukemia = tested on: CCRF-CEM leukemia
RXF 393 renal = tested on: RXF 393 renal
SF-268 CNS = tested on: SF-268 CNS
NCI-H522 lung = tested on: NCI-H522 lung
UACC-257 melanoma = tested on: UACC-257 melanoma
SNB-19 CNS = tested on: SNB-19 CNS
NCI-H226 lung = tested on: NCI-H226 lung
SF-295 CNS = tested on: SF-295 CNS
KM12 colon = tested on: KM12 colon
BT-549 breast = tested on: BT-549 breast
786-0 renal = tested on: 786-0 renal

CC(C)c1sc(NC(=O)c2cc(NC(=O)c3cc(NC(=O)c4cscn4)cn3C)cn2C)nc1C(=O)NCCCN(C)C
GI50 (HOP-92 NSCLC): 0.846 µM | TGI (HOP-92 NSCLC): 9.01 µM | GI50 (NCI-H460 lung): 7.6 µM | TGI (NCI-H460 lung): 22 µM | GI50 (HT29 colon): 5.35 µM | TGI (HT29 colon): 10.9 µM | GI50 (EKVX NSCLC): 5.84 µM | TGI (EKVX NSCLC): > 28.3 µM | GI50 (OVCAR-4 ovarian): 5.34 µM | TGI (OVCAR-4 ovarian): > 28.3 µM | GI50 (MCF7 breast): 3.58 µM | TGI (MCF7 breast): 10.4 µM | GI50 (HOP-62 NSCLC): 6.43 µM | TGI (HOP-62 NSCLC): 19.6 µM | GI50 (HL-60(TB) leukemia): 6.12 µM | TGI (HL-60(TB) leukemia): 18.8 µM | GI50 (HS 578T breast): 4.55 µM | TGI (HS 578T breast): 26.4 µM | GI50 (A549 NSCLC): 9.72 µM | TGI (A549 NSCLC): > 28.3 µM | GI50 (PC-3 prostate): 1.25 µM | TGI (PC-3 prostate): 24.8 µM | GI50 (CAKI-1 renal): 17.5 µM | TGI (CAKI-1 renal): > 28.3 µM | GI50 (IGROV1 ovarian): 4.48 µM | TGI (IGROV1 ovarian): 12.3 µM | GI50 (TK-10 renal): > 28.3 µM | TGI (TK-10 renal): > 28.3 µM | GI50 (MOLT-4 leukemia): 9.35 µM | TGI (MOLT-4 leukemia): > 28.3 µM | GI50 (DU-145 prostate): 5.49 µM | TGI (DU-145 prostate): > 28.3 µM | GI50 (SF-539 CNS): 1.08 µM | TGI (SF-539 CNS): 4.51 µM | GI50 (SN12C renal): 5.89 µM | TGI (SN12C renal): > 28.3 µM | GI50 (MDA-MB-468 breast): 1.03 µM | TGI (MDA-MB-468 breast): 4.68 µM | GI50 (MALME-3M melanoma): 3.78 µM | TGI (MALME-3M melanoma): 8.26 µM | GI50 (NCI-H23 lung): 4.51 µM | TGI (NCI-H23 lung): 10.4 µM | GI50 (UACC-62 melanoma): 3.57 µM | TGI (UACC-62 melanoma): 7.22 µM | GI50 (HCC-2998 colon): 3.86 µM | TGI (HCC-2998 colon): 7.92 µM | GI50 (SW-620 colon): 4.21 µM | TGI (SW-620 colon): 16.3 µM | GI50 (COLO 205 colon): 1.86 µM | TGI (COLO 205 colon): 5.68 µM | GI50 (M14 melanoma): 5.25 µM | TGI (M14 melanoma): 14.2 µM | GI50 (SK-OV-3 ovarian): 1.37 µM | TGI (SK-OV-3 ovarian): 16.3 µM | GI50 (K-562 leukemia): 1.85 µM | TGI (K-562 leukemia): > 28.3 µM | GI50 (MDA-MB-231 breast): 5.63 µM | TGI (MDA-MB-231 breast): 21.8 µM | GI50 (OVCAR-3 ovarian): 2.03 µM | TGI (OVCAR-3 ovarian): > 28.3 µM | GI50 (HCT-116 colon): 2.29 µM | TGI (HCT-116 colon): 8.44 µM | GI50 (ACHN renal): > 28.3 µM | TGI (ACHN renal): > 28.3 µM | GI50 (SK-MEL-28 melanoma): 3.17 µM | TGI (SK-MEL-28 melanoma): 11.9 µM | GI50 (SK-MEL-5 melanoma): 5.35 µM | TGI (SK-MEL-5 melanoma): 11.1 µM | GI50 (HCT-15 colon): > 28.3 µM | TGI (HCT-15 colon): > 28.3 µM | GI50 (RPMI-8226 leukemia): 28.1 µM | TGI (RPMI-8226 leukemia): > 28.3 µM | GI50 (T-47D breast): 1.07 µM | TGI (T-47D breast): 12.5 µM | GI50 (MDA-MB-435): 3.86 µM | TGI (MDA-MB-435): 19.8 µM | GI50 (SNB-75 CNS): 0.829 µM | TGI (SNB-75 CNS): 11.7 µM | GI50 (OVCAR-5 ovarian): 6.29 µM | TGI (OVCAR-5 ovarian): 21 µM | GI50 (NCI/ADR-RES ovarian): > 28.3 µM | TGI (NCI/ADR-RES ovarian): > 28.3 µM | GI50 (U251 CNS): 1.14 µM | TGI (U251 CNS): > 28.3 µM | GI50 (A498 renal): > 28.3 µM | TGI (A498 renal): > 28.3 µM | GI50 (LOX IMVI melanoma): 0.739 µM | TGI (LOX IMVI melanoma): 2.21 µM | GI50 (UO-31 renal): > 28.3 µM | TGI (UO-31 renal): > 28.3 µM | GI50 (OVCAR-8 ovarian): 7.86 µM | TGI (OVCAR-8 ovarian): 26 µM | GI50 (SK-MEL-2 melanoma): 3.75 µM | TGI (SK-MEL-2 melanoma): 7.88 µM | GI50 (CCRF-CEM leukemia): 2.14 µM | TGI (CCRF-CEM leukemia): > 28.3 µM | GI50 (RXF 393 renal): 1.84 µM | TGI (RXF 393 renal): 6.99 µM | GI50 (SF-268 CNS): 2.63 µM | TGI (SF-268 CNS): > 28.3 µM | GI50 (NCI-H522 lung): 1.08 µM | TGI (NCI-H522 lung): 5.58 µM | GI50 (UACC-257 melanoma): 5.78 µM | TGI (UACC-257 melanoma): 16.8 µM | GI50 (SNB-19 CNS): 0.838 µM | TGI (SNB-19 CNS): > 28.3 µM | GI50 (NCI-H226 lung): 3.22 µM | TGI (NCI-H226 lung): > 28.3 µM | GI50 (SF-295 CNS): 9.83 µM | TGI (SF-295 CNS): > 28.3 µM | GI50 (KM12 colon): 11.3 µM | TGI (KM12 colon): > 28.3 µM | GI50 (BT-549 breast): 0.994 µM | TGI (BT-549 breast): 4.45 µM | GI50 (786-0 renal): 6.16 µM | TGI (786-0 renal): 15.5 µM
